Test results from patent US9593110B2, “Neprilysin inhibitors” (Theravence Biopharma R&D IP, LLC, priority 2014, dated 2017).

Target: human NEP (Homo sapiens (Human), UniProt P08473)
Experiment: In vitro enzyme inhibition assay at human NEP
Conditions: pKi, recombinant human NEP, fluorogenic peptide substrate, 37° C.
Protocol: The inhibitory activities of compounds at human and rat neprilysin (EC 3.4.24.11; NEP) and human angiotensin converting enzyme (ACE) were determined using in vitro assays as described below.
The assays were performed in 384-well white opaque plates at 37° C. using the fluorogenic peptide substrates at a concentration of 10 μM in Assay Buffer (NEP: 50 mM HEPES, pH 7.5, 100 mM NaCl, 0.01% polyethylene glycol sorbitan monolaurate (Tween-20), 10 μM ZnSO4; ACE: 50 mM HEPES, pH 7.5, 100 mM NaCl, 0.01% Tween-20, 1 μM ZnSO4).
Test compounds were assayed over the range of concentrations from 10 μM to 20 pM. Test compounds were added to the enzymes and incubated for 30 minute at 37° C. prior to initiating the reaction by the addition of substrate.
Plates were read on a fluorometer with excitation and emission wavelengths set to 320 nm and 405 nm, respectively Inhibition constants were obtained by nonlinear regression of the data using the equation (GraphPad Software, Inc., San Diego, Calif.): v=v0/[1+(I/K′)] where v is the reaction rate, v0 is the uninhibited reaction rate, I is the inhibitor concentration and K′ is the apparent inhibition constant.

Sequence of human NEP (P08473 52-750): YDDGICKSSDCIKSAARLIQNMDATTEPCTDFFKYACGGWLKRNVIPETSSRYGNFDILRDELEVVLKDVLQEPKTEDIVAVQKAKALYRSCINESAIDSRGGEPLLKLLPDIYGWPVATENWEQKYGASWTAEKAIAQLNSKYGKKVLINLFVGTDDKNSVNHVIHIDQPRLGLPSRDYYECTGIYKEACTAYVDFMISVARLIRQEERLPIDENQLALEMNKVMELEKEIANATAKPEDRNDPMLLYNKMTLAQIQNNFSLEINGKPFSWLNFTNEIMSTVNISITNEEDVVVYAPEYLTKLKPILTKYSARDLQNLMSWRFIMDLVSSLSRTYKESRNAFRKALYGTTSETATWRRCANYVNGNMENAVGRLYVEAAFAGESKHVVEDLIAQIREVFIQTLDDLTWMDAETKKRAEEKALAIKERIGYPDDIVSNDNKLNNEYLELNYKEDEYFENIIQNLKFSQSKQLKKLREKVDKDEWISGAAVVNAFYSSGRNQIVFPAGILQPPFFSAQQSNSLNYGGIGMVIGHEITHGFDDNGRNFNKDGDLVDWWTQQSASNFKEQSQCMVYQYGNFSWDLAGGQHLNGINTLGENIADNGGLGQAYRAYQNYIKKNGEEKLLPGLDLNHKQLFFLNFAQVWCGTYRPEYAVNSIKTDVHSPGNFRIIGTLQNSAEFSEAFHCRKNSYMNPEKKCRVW

| Compound | Ki [nM] |
| --- | --- |
| O=C(N[C@H](Cc1ccc(-c2ccccc2)cc1)C[C@@H](COCCO)C(=O)O)c1c[nH]nn1 [Example 11, (2S,4S)-5-Biphenyl-4-yl-2-(2-hydroxyethoxymethyl)-4-[(1H-[1,2,3]triazole-4-carbonyl)amino]pentanoic Acid] | 1.26 to 3.16 |
| O=C(N[C@H](Cc1ccc(-c2ccccc2)cc1)C[C@@H](COCCCO)C(=O)O)c1c[nH]nn1 [Example 12, (2S,4S)-5-Biphenyl-4-yl-2-(3-hydroxypropoxymethyl)-4-[(1H-[1,2,3]triazole-4-carbonyl)amino]pentanoic Acid] | 1.26 to 3.16 |
| N[C@H](C[C@@H](Cc1ccc(-c2cc(Cl)ccc2F)cc1)NC(=O)c1c[nH]nn1)C(=O)O [Example 13, (2R,4R)-2-Amino-5-(5′-chloro-2′-fluorobiphenyl-4-yl)-4-[(1H-[1,2,3]triazole-4-carbonyl)amino]pentanoic Acid] | ≤ 1 |
| CC(C)c1coc(C(=O)N[C@H](Cc2ccc(-c3cc(Cl)ccc3F)cc2)C[C@@H](N)C(=O)O)n1 [Example 15, (2R,4R)-2-Amino-5-(5′-chloro-2′-fluorobiphenyl-4-yl)-4-[(4-isopropyloxazole-2-carbonyl)amino]pentanoic Acid] | ≤ 1 |
| CCc1cc(C(=O)N[C@H](Cc2ccc(-c3cc(Cl)ccc3F)cc2)C[C@@H](N)C(=O)O)on1 [Example 16-1, (2R,4R)-2-Amino-5-(5′-chloro-2′-fluorobiphenyl-4-yl)-4-[(3-ethylisoxazole-5-carbonyl)-amino]pentanoic acid] | 1.26 to 3.16 |
| CCCc1cc(C(=O)N[C@H](Cc2ccc(-c3cc(Cl)ccc3F)cc2)C[C@@H](N)C(=O)O)no1 [Example 16-2, (2R,4R)-2-Amino-5-(5′-chloro-2′-fluorobiphenyl-4-yl)-4-[(5-propylisoxazole-3-carbonyl)-amino]pentanoic acid] | 1.26 to 3.16 |
| Cc1cnc(C(=O)N[C@H](Cc2ccc(-c3cc(Cl)ccc3F)cc2)C[C@@H](N)C(=O)O)o1 [Example 16-3, (2R,4R)-2-Amino-5-(5′-chloro-2′-fluorobiphenyl-4-yl)-4-[(5-methyloxazole-2-carbonyl)-amino]pentanoic acid] | 1.26 to 3.16 |
| CCOc1nc(C(=O)N[C@H](Cc2ccc(-c3cc(Cl)ccc3F)cc2)C[C@@H](N)C(=O)O)co1 [Example 16-5, (2R,4R)-2-Amino-5-(5′-chloro-2′-fluorobiphenyl-4-yl)-4-[(2-ethoxyoxazole-4-carbonyl)-amino]pentanoic acid] | 3.16 to 10 |
| CCCc1nc(C(=O)N[C@H](Cc2ccc(-c3cc(Cl)ccc3F)cc2)C[C@@H](N)C(=O)O)co1 [Example 16-6, (2R,4R)-2-Amino-5-(5′-chloro-2′-fluorobiphenyl-4-yl)-4-[(2-propyloxazole-4-carbonyl)-amino]pentanoic acid] | 3.16 to 10 |
| N[C@H](C[C@@H](Cc1ccc(-c2cc(Cl)ccc2F)cc1)NC(=O)c1ccns1)C(=O)O [Example 16-8, (2R,4R)-2-Amino-5-(5′-chloro-2′-fluorobiphenyl-4-yl)-4-[(isothiazole-5-carbonyl)amino]-pentanoic acid] | 3.16 to 10 |

Second part, the molecule after the results:

| Ki [nM] | Compound |
| --- | --- |
| 1.26 to 3.16 | N[C@H](C[C@@H](Cc1ccc(-c2cc(Cl)ccc2F)cc1)NC(=O)c1coc(C2CC2)n1)C(=O)O [Example 16-4, (2R,4R)-2-Amino-5-(5′-chloro-2′-fluorobiphenyl-4-yl)-4-[(2-cyclopropyloxazole-4-carbonyl)amino]pentanoic acid] |
| 3.16 to 10 | N[C@H](C[C@@H](Cc1ccc(-c2cc(Cl)ccc2F)cc1)NC(=O)c1ccc(Cl)cn1)C(=O)O [Example 16-7, (2R,4R)-2-Amino-5-(5′-chloro-2′-fluorobiphenyl-4-yl)-4-[(5-chloropyridine-2-carbonyl)-amino]pentanoic acid] |
| 3.16 to 10 | CCOC(=O)[C@H](N)C[C@@H](Cc1ccc(-c2cc(Cl)ccc2F)cc1)NC(=O)c1cc(O)no1 [Example 16-11, (2R,4R)-2-Amino-5-(5′-chloro-2′-fluorobiphenyl-4-yl)-4-[(3-hydroxyisoxazole-5-carbonyl)amino]pentanoic acid ethyl ester] |
| 3.16 to 10 | N[C@@H](C[C@@H](Cc1ccc(-c2cc(Cl)ccc2F)cc1)NC(=O)c1noc(=O)[nH]1)C(=O)O [Example 16-15, (2S,4R)-2-Amino-5-(5′-chloro-2′-fluorobiphenyl-4-yl)-4-[(5-oxo-4,5-dihydro-[1,2,4]oxadiazole-3-carbonyl)amino]pentanoic acid] |
| 1.26 to 3.16 | Cc1n[nH]c(C(=O)N[C@H](Cc2ccc(-c3cc(Cl)ccc3F)cc2)C[C@@H](N)C(=O)O)c1F [Example 16-20, (2R,4R)-2-Amino-5-(5′-chloro-2′-fluorobiphenyl-4-yl)-4-[(4-fluoro-5-methyl-2H-pyrazole-3-carbonyl)amino]pentanoic acid] |

Same assay, conditions: recombinant human NEP, fluorogenic peptide substrate, 37° C.

| Compound | pKi |
| --- | --- |
| CCOC[C@H](C[C@@H](Cc1ccc(-c2cccc(Cl)c2)cc1)NC(=O)c1cc(C(C)=O)[nH]n1)C(=O)O [Example 9-2, (2S,4S)-4-[(5-Acetyl-1H-pyrazole-3-carbonyl)-amino]-5-(3′-chlorobiphenyl-4-yl)-2-ethoxymethylpentanoic acid] | ≧9.0 |
| CCOC[C@H](C[C@@H](Cc1ccc(-c2cccc(Cl)c2)cc1)NC(=O)c1n[nH]c(C(F)(F)F)n1)C(=O)O [Example 9-3, (2S,4S)-5-(3′-Chlorobiphenyl-4-yl)-2-ethoxymethyl-4-[(5-trifluoromethyl-1H-[1,2,4]triazole-3-carbonyl)amino]pentanoic acid] | ≧9.0 |
| CCOC[C@H](C[C@@H](Cc1ccc(-c2cccc(Cl)c2)cc1)NC(=O)c1cc(OC)no1)C(=O)O [Example 9-4, (2S,4S)-5-(3′-Chlorobiphenyl-4-yl)-2-ethoxymethyl-4-[(3-methoxy-isoxazole-5-carbonyl)amino]pentanoic acid] | ≧9.0 |
| CCOC[C@H](C[C@@H](Cc1ccc(-c2cccc(Cl)c2)cc1)NC(=O)c1noc(=O)[nH]1)C(=O)O [Example 9-5, (2S,4S)-5-(3′-Chlorobiphenyl-4-yl)-2-ethoxymethyl-4-[(5-oxo-4,5-dihydro-[1,2,4]oxadiazole-3-carbonyl)amino]pentanoic acid] | ≧9.0 |
| CCOC[C@H](C[C@@H](Cc1ccc(-c2ccccc2)cc1)NC(=O)c1c[nH]nn1)C(=O)O [Example 10, (2S,4S)-5-Biphenyl-4-yl-2-ethoxymethyl-4-[(1H-[1,2,3]triazole-4-carbonyl)amino]pentanoic Acid] | ≧9.0 |

Second part, the molecule after the results:

| pKi | Compound |
| --- | --- |
| ≧9.0 | CC(=O)c1cc(C(=O)N[C@H](Cc2ccc(-c3cc(Cl)ccc3F)cc2)C[C@@H](N)C(=O)O)[nH]n1 [Example 16-9, (2R,4R)-4-[(5-Acetyl-2H-pyrazole-3-carbonyl)amino]-2-amino-5-(5′-chloro-2′-fluoro-biphenyl-4-yl)pentanoic acid] |
| ≧9.0 | N[C@H](C[C@@H](Cc1ccc(-c2cc(Cl)ccc2F)cc1)NC(=O)c1noc(=O)[nH]1)C(=O)O [Example 16-16, (2R,4R)-2-Amino-5-(5′-chloro-2′-fluorobiphenyl-4-yl)-4-[(5-oxo-4,5-dihydro-[1,2,4]oxadiazole-3-carbonyl)amino]pentanoic acid] |
| ≧9.0 | CN(C)C(=O)c1cc(C(=O)N[C@H](Cc2ccc(-c3cc(Cl)ccc3F)cc2)C[C@@H](N)C(=O)O)[nH]n1 [Example 16-18, (2R,4R)-2-Amino-5-(5′-chloro-2′-fluorobiphenyl-4-yl)-4-[(5-dimethylcarbamoyl-2H-pyrazole-3-carbonyl)amino]pentanoic acid] |
